Assay results taken from US11472791B2 (Incyte Corporation, priority 2019, dated 2022).

What follows are compounds tested against CDK2/Cyclin E1 (Homo sapiens (Human), UniProt P24941) (assay: CDK2/Cyclin E1 HTRF enzyme activity assay). Settings: 1 mM ATP.
Format: biochemical
Procedure: Assays are conducted in white 384-well polystyrene plates in a final reaction volume of 8 μL. […] HTRF signals are read after 1 hour at room temperature on a PHERAstar FS plate reader (BMG Labtech). Data is analyzed with IDBS XLFit and GraphPad Prism 5.0 software using a three or four parameter dose response curve to determine IC50 for each compound.

IC50, < 50 nM:
CC(C)(CO)NCc1ccc(-n2cc(-c3nc(NC4CCN(S(C)(=O)=O)CC4)ncc3C#N)cn2)c(Cl)c1 [Example 157, 4-(1-(2-Chloro-4-(((1-hydroxy-2-methylpropan-2-yl)amino)methyl)phenyl)-1H-pyrazol-4-yl)-2-((1-(methylsulfonyl)piperidin-4-yl)amino)pyrimidine-5-carbonitrile]
CS(=O)(=O)N1CCC(Nc2ncc(C#N)c(-c3cnn(-c4ccc(CN[C@]5(C)C[C@H](O)C5)cc4Cl)c3)n2)CC1 [Example 158, 4-(1-(2-Chloro-4-((((1s,3s)-3-hydroxy-1-methylcyclobutyl)amino)methyl)phenyl)-1H-pyrazol-4-yl)-2-((1-(methylsulfonyl)piperidin-4-yl)amino)pyrimidine-5-carbonitrile]
CS(=O)(=O)N1CCC(Nc2ncc(C#N)c(-c3cnn(-c4ccc(CNC5(CO)CC5)cc4Cl)c3)n2)CC1 [Example 159, 4-(1-(2-Chloro-4-(((1-(hydroxymethyl)cyclopropyl)amino)methyl)phenyl)-1H-pyrazol-4-yl)-2-((1-(methylsulfonyl)piperidin-4-yl)amino)pyrimidine-5-carbonitrile]
CC(C)(NCc1ccc(-n2cc(-c3nc(NC4CCN(S(C)(=O)=O)CC4)ncc3C#N)cn2)c(Cl)c1)C(N)=O [Example 160, 2-((3-Chloro-4-(4-(5-cyano-2-((1-(methylsulfonyl)piperidin-4-yl)amino)pyrimidin-4-yl)-1H-pyrazol-1-yl)benzyl)amino)-2-methylpropanamide]
CS(=O)(=O)N1CCC(Nc2ncc(C#N)c(-c3cnn(-c4ccc(CN[C@H]5C[C@H](O)C5)cc4Cl)c3)n2)CC1 [Example 161, 4-(1-(2-Chloro-4-((((1r,3r)-3-hydroxycyclobutyl)amino)methyl)phenyl)-1H-pyrazol-4-yl)-2-((1-(methylsulfonyl)piperidin-4-yl)amino)pyrimidine-5-carbonitrile]
CS(=O)(=O)N1CCC(Nc2ncc(C#N)c(-c3cnn(-c4ccc(CN[C@H]5C[C@@H](O)C5)cc4Cl)c3)n2)CC1 [Example 162, 4-(1-(2-Chloro-4-((((1s,3s)-3-hydroxycyclobutyl)amino)methyl)phenyl)-1H-pyrazol-4-yl)-2-((1-(methylsulfonyl)piperidin-4-yl)amino)pyrimidine-5-carbonitrile]
CO[C@H]1C[C@@H](NCc2ccc(-n3cc(-c4nc(NC5CCN(S(C)(=O)=O)CC5)ncc4C#N)cn3)c(Cl)c2)C1 [Example 163, 4-(1-(2-Chloro-4-((((1s,3s)-3-methoxycyclobutyl)amino)methyl)phenyl)-1H-pyrazol-4-yl)-2-((1-(methylsulfonyl)piperidin-4-yl)amino)pyrimidine-5-carbonitrile]
CS(=O)(=O)N1CCC(Nc2ncc(C#N)c(-c3cnn(-c4ccc(CN[C@H]5C[C@@H](C#N)C5)cc4Cl)c3)n2)CC1 [Example 164, 4-(1-(2-Chloro-4-((((1s,3s)-3-cyanocyclobutyl)amino)methyl)phenyl)-1H-pyrazol-4-yl)-2-((1-(methylsulfonyl)piperidin-4-yl)amino)pyrimidine-5-carbonitrile]
CCS(=O)(=O)N1CCC(Nc2ncc(C#N)c(-c3cnn(-c4ccc(CNc5cnn(C)c5)cc4Cl)c3)n2)CC1 [Example 165, 4-(1-(2-Chloro-4-(((1-methyl-1H-pyrazol-4-yl)amino)methyl)phenyl)-1H-pyrazol-4-yl)-2-((1-(ethylsulfonyl)piperidin-4-yl)amino)pyrimidine-5-carbonitrile]
COC(=O)NC1CCCCC1NCc1ccc(-n2cc(-c3nc(NC4CCN(S(C)(=O)=O)CC4)ncc3C#N)cn2)c(Cl)c1 (stereo not drawn) [Example 166, Methyl (2-((3-chloro-4-(4-(5-cyano-2-((1-(methylsulfonyl)piperidin-4-yl)amino)pyrimidin-4-yl)-1H-pyrazol-1-yl)benzyl)amino)cyclohexyl)carbamate]
COC(=O)N1CCC[C@H](NCc2ccc(-n3cc(-c4nc(NC5CCN(S(C)(=O)=O)CC5)ncc4C#N)cn3)c(Cl)c2)C1 [Example 167, Methyl (S)-3-((3-chloro-4-(4-(5-cyano-2-((1-(methylsulfonyl)piperidin-4-yl)amino)pyrimidin-4-yl)-1H-pyrazol-1-yl)benzyl)amino)piperidine-1-carboxylate]
COC(=O)N1CCC[C@@H](NCc2ccc(-n3cc(-c4nc(NC5CCN(S(C)(=O)=O)CC5)ncc4C#N)cn3)c(Cl)c2)C1 [Example 168, Methyl (R)-3-((3-chloro-4-(4-(5-cyano-2-((1-(methylsulfonyl)piperidin-4-yl)amino)pyrimidin-4-yl)-1H-pyrazol-1-yl)benzyl)amino)piperidine-1-carboxylate]
CC(=O)N1CC[C@H](NCc2ccc(-n3cc(-c4nc(NC5CCN(S(C)(=O)=O)CC5)ncc4C#N)cn3)c(Cl)c2)C1 [Example 169, (S)-4-(1-(4-(((1-Acetylpyrrolidin-3-yl)amino)methyl)-2-chlorophenyl)-1H-pyrazol-4-yl)-2-((1-(methylsulfonyl)piperidin-4-yl)amino)pyrimidine-5-carbonitrile]
CC(=O)N1CC[C@@H](NCc2ccc(-n3cc(-c4nc(NC5CCN(S(C)(=O)=O)CC5)ncc4C#N)cn3)c(Cl)c2)C1 [Example 170, (R)-4-(1-(4-(((1-Acetylpyrrolidin-3-yl)amino)methyl)-2-chlorophenyl)-1H-pyrazol-4-yl)-2-((1-(methylsulfonyl)piperidin-4-yl)amino)pyrimidine-5-carbonitrile]
CC(=O)N1CC(NCc2ccc(-n3cc(-c4nc(NC5CCN(S(C)(=O)=O)CC5)ncc4C#N)cn3)c(Cl)c2)C1 [Example 171, 4-(1-(4-(((1-Acetylazetidin-3-yl)amino)methyl)-2-chlorophenyl)-1H-pyrazol-4-yl)-2-((1-(methylsulfonyl)piperidin-4-yl)amino)pyrimidine-5-carbonitrile]
COC(=O)N1CC(NCc2ccc(-n3cc(-c4nc(NC5CCN(S(C)(=O)=O)CC5)ncc4C#N)cn3)c(Cl)c2)C1 [Example 172, Methyl 3-((3-chloro-4-(4-(5-cyano-2-((1-(methylsulfonyl)piperidin-4-yl)amino)pyrimidin-4-yl)-1H-pyrazol-1-yl)benzyl)amino)azetidine-1-carboxylate]
CS(=O)(=O)N1CCC(Nc2ncc(C#N)c(-c3cnn(-c4ccc(CN[C@H]5CC[C@@](C)(O)CC5)cc4Cl)c3)n2)CC1 [Example 173, 4-(1-(2-Chloro-4-((((1s,4s)-4-hydroxy-4-methylcyclohexyl)amino)methyl)phenyl)-1H-pyrazol-4-yl)-2-((1-(methylsulfonyl)piperidin-4-yl)amino)pyrimidine-5-carbonitrile]
CS(=O)(=O)N1CCC(Nc2ncc(C#N)c(-c3cnn(-c4ccc(CN[C@H]5CC[C@](C)(O)CC5)cc4Cl)c3)n2)CC1 [Example 174, 4-(1-(2-Chloro-4-((((1r,4r)-4-hydroxy-4-methylcyclohexyl)amino)methyl)phenyl)-1H-pyrazol-4-yl)-2-((1-(methylsulfonyl)piperidin-4-yl)amino)pyrimidine-5-carbonitrile]
CCS(=O)(=O)N1CCC(Nc2ncc(C#N)c(-c3cnn(-c4ccc(CN[C@H]5CC[C@@](C)(O)CC5)cc4Cl)c3)n2)CC1 [Example 175, 4-(1-(2-Chloro-4-((((1s,4s)-4-hydroxy-4-methylcyclohexyl)amino)methyl)phenyl)-1H-pyrazol-4-yl)-2-((1-(ethylsulfonyl)piperidin-4-yl)amino)pyrimidine-5-carbonitrile]
CCS(=O)(=O)N1CCC(Nc2ncc(C#N)c(-c3cnn(-c4ccc(CN[C@H]5CC[C@](C)(O)CC5)cc4Cl)c3)n2)CC1 [Example 176, 4-(1-(2-Chloro-4-((((1r,4r)-4-hydroxy-4-methylcyclohexyl)amino)methyl)phenyl)-1H-pyrazol-4-yl)-2-((1-(ethylsulfonyl)piperidin-4-yl)amino)pyrimidine-5-carbonitrile]
CS(=O)(=O)N1CCC(Nc2ncc(C#N)c(-c3cnn(-c4ccc(CN[C@H]5CC[C@](O)(C(F)(F)F)CC5)cc4Cl)c3)n2)CC1 [Example 177, 4-(1-(2-Chloro-4-((((1s,4s)-4-hydroxy-4-(trifluoromethyl)cyclohexyl)amino)methyl)phenyl)-1H-pyrazol-4-yl)-2-((1-(methylsulfonyl)piperidin-4-yl)amino)pyrimidine-5-carbonitrile]
CS(=O)(=O)N1CCC(Nc2ncc(C#N)c(-c3cnn(-c4ccc(CN[C@@H]5CCCC[C@H]5O)cc4Cl)c3)n2)CC1 [Example 178, 4-(1-(2-Chloro-4-((((1R,2R)-2-hydroxycyclohexyl)amino)methyl)phenyl)-1H-pyrazol-4-yl)-2-((1-(methylsulfonyl)piperidin-4-yl)amino)pyrimidine-5-carbonitrile]
CS(=O)(=O)N1CCC(Nc2ncc(C#N)c(-c3cnn(-c4ccc(CN[C@@H]5CCCC[C@@H]5O)cc4Cl)c3)n2)CC1 [Example 179, 4-(1-(2-Chloro-4-((((1R,2S)-2-hydroxycyclohexyl)amino)methyl)phenyl)-1H-pyrazol-4-yl)-2((1-(methylsulfonyl)piperidin-4-yl)amino)pyrimidine-5-carbonitrile]
CS(=O)(=O)N1CCC(Nc2ncc(C#N)c(-c3cnn(-c4ccc(CN[C@H]5CCC[C@@H](O)C5)cc4Cl)c3)n2)CC1 [Example 180, 4-(1-(2-Chloro-4-((((1S,3R)-3-hydroxycyclohexyl)amino)methyl)phenyl)-1H-pyrazol-4-yl)-2((1-(methylsulfonyl)piperidin-4-yl)amino)pyrimidine-5-carbonitrile]
